Data: ChEMBL document CHEMBL1128431, “Specific sequestering agents for the actinides. 28. Synthesis and initial evaluation of multidentate 4-carbamoyl-3-hydroxyl-1-methyl-2(1H)-pyridinone ligands for in vivo plutonium(IV) chelation” (1995)

Tests used:
Mus musculus [1] = test: Percent of Pu(IV) excreted after 24 hours in urine under the effect of 30 umol/kg (i.p.) of ligand administered 1 hr after iv injection of Pu(IV) citrate; type: functional
Mus musculus [2] = test: % Pu(IV) retained after 24 hours in kidneys of mice under the effect of 30uM/kg(po, gastric intubation) of ligand administered 3 min after iv injection of Pu(IV) citrate; type: functional, Kidney
Mus musculus [3] = test: % Pu(IV) retained after 24 hr in whole body of mice under the effect of 30uM/kg(po, gastric intubation) of ligand administered 3 min after iv injection of Pu(IV) citrate; type: functional
Mus musculus [4] = test: % Pu(IV) excreted at 0-4 hr in urine under the effect of 30uM/kg(po, gastric intubation) of ligand administered 3 min after iv injection of Pu(IV) citrate; type: functional
Mus musculus [5] = test: Percent of Pu(IV) retained after 24 hours in whole body of mice under the effect of 30 umol/kg (i.p.) of ligand administered 1 hr after iv injection of Pu(IV) citrate; type: functional
Mus musculus [6] = test: %Pu(IV) excreted after 24 hr in GI contents and feces under the effect of 30uM/kg(po, gastric intubation) of ligand administered 3 min after iv injection of Pu(IV) citrate; type: functional
Mus musculus [7] = test: Percent of Pu(IV) retained after 24 hours in liver of mice under the effect of 30 umol/kg (i.p.) of ligand administered 1 hr after iv injection of Pu(IV) citrate; type: functional
Mus musculus [8] = test: Percent of Pu(IV) excreted after 24 hours in GI contents and feces under the effect of 30 umol/kg (i.p.) of ligand administered 1 hr after iv injection of Pu(IV) citrate; type: functional
Mus musculus [9] = test: % Pu(IV) retained after 24 hours in soft tissue of mice under the effect of 30uM/kg(po, gastric intubation) of ligand administered 3 min after iv injection of Pu(IV) citrate; type: functional
Mus musculus [10] = test: % Pu(IV) retained after 24 hours in liver of mice under the effect of 30uM/kg(po, gastric intubation) of ligand administered 3 min after iv injection of Pu(IV) citrate; type: functional
Mus musculus [11] = test: % Pu(IV) excreted at 4-24 hr in urine under the effect of 30uM/kg(po, gastric intubation) of ligand administered 3 min after iv injection of Pu(IV) citrate
Mus musculus [12] = test: % Pu(IV) retained after 24 hours in skeleton of mice under the effect of 30uM/kg(po, gastric intubation) of ligand administered 3 min after iv injection of Pu(IV) citrate; type: functional
Mus musculus [13] = test: Percent of Pu(IV) retained after 24 hours in skeleton of mice under the effect of 30 umol/kg (i.p.) of ligand administered 1 hr after iv injection of Pu(IV) citrate; type: functional
Mus musculus [14] = test: Percent of Pu(IV) retained after 24 hours in soft tissue of mice under the effect of 30 umol/kg (i.p.) of ligand administered 1 hr after iv injection of Pu(IV) citrate; type: functional
Mus musculus [15] = test: Percent of Pu(IV) retained after 24 hours in kidneys of mice under the effect of 30 umol/kg (i.p.) of ligand administered 1 hr after iv injection of Pu(IV) citrate; type: functional, Kidney

Cn1ccc(C(=O)NCc2cc(CNC(=O)c3ccn(C)c(=O)c3O)cc(CNC(=O)c3ccn(C)c(=O)c3O)c2)c(O)c1=O
ID (Mus musculus [1]): 8%
ID (Mus musculus [2]): 1.2%
ID (Mus musculus [3]): 82%
ID (Mus musculus [4]): 6.4%
ID (Mus musculus [5]): 22%
ID (Mus musculus [6]): 5.2%
ID (Mus musculus [7]): 6.1%
ID (Mus musculus [8]): 70%
ID (Mus musculus [9]): 7.5%
ID (Mus musculus [10]): 40%
ID (Mus musculus [11]): 6%
ID (Mus musculus [12]): 34%
ID (Mus musculus [13]): 12%
ID (Mus musculus [14]): 3%
ID (Mus musculus [15]): 0.9%

Cn1ccc(C(=O)NCCOCCNC(=O)c2ccn(C)c(=O)c2O)c(O)c1=O
ID (Mus musculus [1]): 28%
ID (Mus musculus [2]): 0.8%
ID (Mus musculus [3]): 34%
ID (Mus musculus [4]): 14%
ID (Mus musculus [5]): 16%
ID (Mus musculus [6]): 46%
ID (Mus musculus [7]): 2.7%
ID (Mus musculus [8]): 56%
ID (Mus musculus [9]): 2.9%
ID (Mus musculus [10]): 11%
ID (Mus musculus [11]): 7.8%
ID (Mus musculus [12]): 18%
ID (Mus musculus [13]): 11%
ID (Mus musculus [14]): 1.7%
ID (Mus musculus [15]): 0.3%

Cn1ccc(C(=O)NCCN(CCNC(=O)c2ccn(C)c(=O)c2O)CCN(CCNC(=O)c2ccn(C)c(=O)c2O)CCNC(=O)c2ccn(C)c(=O)c2O)c(O)c1=O
ID (Mus musculus [1]): 36%
ID (Mus musculus [2]): 0.4%
ID (Mus musculus [3]): 23%
ID (Mus musculus [4]): 12%
ID (Mus musculus [5]): 19%
ID (Mus musculus [6]): 38%
ID (Mus musculus [7]): 3.8%
ID (Mus musculus [8]): 45%
ID (Mus musculus [9]): 4%
ID (Mus musculus [10]): 7.6%
ID (Mus musculus [11]): 27%
ID (Mus musculus [12]): 11%
ID (Mus musculus [13]): 11%
ID (Mus musculus [14]): 2.8%
ID (Mus musculus [15]): 1.3%

Cn1ccc(C(=O)NCCN(CCCCN(CCNC(=O)c2ccn(C)c(=O)c2O)CCNC(=O)c2ccn(C)c(=O)c2O)CCNC(=O)c2ccn(C)c(=O)c2O)c(O)c1=O
ID (Mus musculus [1]): 47%
ID (Mus musculus [2]): 1.3%
ID (Mus musculus [3]): 32%
ID (Mus musculus [4]): 20%
ID (Mus musculus [5]): 29%
ID (Mus musculus [6]): 8.6%
ID (Mus musculus [7]): 14%
ID (Mus musculus [8]): 25%
ID (Mus musculus [9]): 1.8%
ID (Mus musculus [10]): 17%
ID (Mus musculus [11]): 39%
ID (Mus musculus [12]): 13%
ID (Mus musculus [13]): 11%
ID (Mus musculus [14]): 2.1%
ID (Mus musculus [15]): 1.8%

Cn1ccc(C(=O)NCCCCCNC(=O)c2ccn(C)c(=O)c2O)c(O)c1=O
ID (Mus musculus [1]): 18%
ID (Mus musculus [2]): 0.8%
ID (Mus musculus [3]): 54%
ID (Mus musculus [4]): 10%
ID (Mus musculus [5]): 16%
ID (Mus musculus [6]): 22%
ID (Mus musculus [7]): 3.1%
ID (Mus musculus [8]): 67%
ID (Mus musculus [9]): 3.2%
ID (Mus musculus [10]): 25%
ID (Mus musculus [11]): 13%
ID (Mus musculus [12]): 24%
ID (Mus musculus [13]): 10%
ID (Mus musculus [14]): 1.9%
ID (Mus musculus [15]): 0.3%

Cn1ccc(C(=O)NCCCCNC(=O)c2ccn(C)c(=O)c2O)c(O)c1=O
ID (Mus musculus [1]): 19%
ID (Mus musculus [2]): 0.5%
ID (Mus musculus [3]): 55%
ID (Mus musculus [4]): 26%
ID (Mus musculus [5]): 17%
ID (Mus musculus [6]): 11%
ID (Mus musculus [7]): 3.7%
ID (Mus musculus [8]): 63%
ID (Mus musculus [9]): 3.2%
ID (Mus musculus [10]): 34%
ID (Mus musculus [11]): 8.8%
ID (Mus musculus [12]): 17%
ID (Mus musculus [13]): 11%
ID (Mus musculus [14]): 1.9%
ID (Mus musculus [15]): 0.4%

O=C(NCCCN(CCCCN(CCCNC(=O)c1cccc(=O)n1O)C(=O)c1cccc(=O)n1O)C(=O)c1cccc(=O)n1O)c1cccc(=O)n1O
ID (Mus musculus [1]): 25%
ID (Mus musculus [2]): 0.1%
ID (Mus musculus [3]): 24%
ID (Mus musculus [4]): 23%
ID (Mus musculus [5]): 18%
ID (Mus musculus [6]): 51%
ID (Mus musculus [7]): 8.9%
ID (Mus musculus [8]): 57%
ID (Mus musculus [9]): 13%
ID (Mus musculus [10]): 11%
ID (Mus musculus [11]): 2.7%
ID (Mus musculus [12]): 12%
ID (Mus musculus [13]): 7.5%
ID (Mus musculus [14]): 1.6%
ID (Mus musculus [15]): 0.2%

CC(=O)N(O)CCCCCNC(=O)CCC(=O)N(O)CCCCCNC(=O)CCC(=O)N(O)CCCCCNC(=O)c1ccn(C)c(=O)c1O
ID (Mus musculus [1]): 21%
ID (Mus musculus [2]): 2.4%
ID (Mus musculus [3]): 60%
ID (Mus musculus [4]): 2.4%
ID (Mus musculus [5]): 53%
ID (Mus musculus [6]): 17%
ID (Mus musculus [7]): 13%
ID (Mus musculus [8]): 26%
ID (Mus musculus [9]): 15%
ID (Mus musculus [10]): 22%
ID (Mus musculus [11]): 20%
ID (Mus musculus [12]): 20%
ID (Mus musculus [13]): 17%
ID (Mus musculus [14]): 19%
ID (Mus musculus [15]): 3%

Cn1ccc(C(=O)NCCN(CCCN(CCNC(=O)c2ccn(C)c(=O)c2O)CCNC(=O)c2ccn(C)c(=O)c2O)CCNC(=O)c2ccn(C)c(=O)c2O)c(O)c1=O
ID (Mus musculus [1]): 34%
ID (Mus musculus [2]): 1.2%
ID (Mus musculus [3]): 30%
ID (Mus musculus [4]): 16%
ID (Mus musculus [5]): 24%
ID (Mus musculus [6]): 22%
ID (Mus musculus [7]): 10%
ID (Mus musculus [8]): 41%
ID (Mus musculus [9]): 3.1%
ID (Mus musculus [10]): 13%
ID (Mus musculus [11]): 33%
ID (Mus musculus [12]): 13%
ID (Mus musculus [13]): 9.9%
ID (Mus musculus [14]): 2.7%
ID (Mus musculus [15]): 1.6%

O=C(NCc1cc(CNC(=O)c2cccc(=O)n2O)cc(CNC(=O)c2cccc(=O)n2O)c1)c1cccc(=O)n1O
ID (Mus musculus [1]): 9.6%
ID (Mus musculus [5]): 47%
ID (Mus musculus [7]): 18%
ID (Mus musculus [8]): 43%
ID (Mus musculus [13]): 17%
ID (Mus musculus [14]): 10%
ID (Mus musculus [15]): 1.8%

Cn1ccc(C(=O)NCCCNC(=O)c2ccn(C)c(=O)c2O)c(O)c1=O
ID (Mus musculus [1]): 32%
ID (Mus musculus [2]): 0.8%
ID (Mus musculus [3]): 66%
ID (Mus musculus [4]): 16%
ID (Mus musculus [5]): 27%
ID (Mus musculus [6]): 7.9%
ID (Mus musculus [7]): 9.5%
ID (Mus musculus [8]): 41%
ID (Mus musculus [9]): 5%
ID (Mus musculus [10]): 33%
ID (Mus musculus [11]): 11%
ID (Mus musculus [12]): 27%
ID (Mus musculus [13]): 14%
ID (Mus musculus [14]): 2.6%
ID (Mus musculus [15]): 0.5%

Cn1ccc(C(=O)NCCCN(CCCNC(=O)c2ccn(C)c(=O)c2O)CCCNC(=O)c2ccn(C)c(=O)c2O)c(O)c1=O
ID (Mus musculus [1]): 55%
ID (Mus musculus [2]): 0.7%
ID (Mus musculus [3]): 60%
ID (Mus musculus [4]): 1.8%
ID (Mus musculus [5]): 33%
ID (Mus musculus [6]): 36%
ID (Mus musculus [7]): 17%
ID (Mus musculus [8]): 12%
ID (Mus musculus [9]): 4.3%
ID (Mus musculus [10]): 28%
ID (Mus musculus [11]): 3.6%
ID (Mus musculus [12]): 28%
ID (Mus musculus [13]): 14%
ID (Mus musculus [14]): 2%
ID (Mus musculus [15]): 0.7%

Cn1ccc(C(=O)NCCN(CCNC(=O)c2ccn(C)c(=O)c2O)CCNC(=O)c2ccn(C)c(=O)c2O)c(O)c1=O
ID (Mus musculus [1]): 35%
ID (Mus musculus [2]): 0.7%
ID (Mus musculus [3]): 25%
ID (Mus musculus [4]): 21%
ID (Mus musculus [5]): 20%
ID (Mus musculus [6]): 34%
ID (Mus musculus [7]): 5.5%
ID (Mus musculus [8]): 45%
ID (Mus musculus [9]): 1.9%
ID (Mus musculus [10]): 8.5%
ID (Mus musculus [11]): 21%
ID (Mus musculus [12]): 13%
ID (Mus musculus [13]): 11%
ID (Mus musculus [14]): 2.7%
ID (Mus musculus [15]): 0.7%

Cn1ccc(C(=O)NCCCCCCNC(=O)c2ccn(C)c(=O)c2O)c(O)c1=O
ID (Mus musculus [1]): 14%
ID (Mus musculus [2]): 0.6%
ID (Mus musculus [3]): 76%
ID (Mus musculus [4]): 7.3%
ID (Mus musculus [5]): 23%
ID (Mus musculus [6]): 9.8%
ID (Mus musculus [7]): 6.5%
ID (Mus musculus [8]): 63%
ID (Mus musculus [9]): 6.2%
ID (Mus musculus [10]): 44%
ID (Mus musculus [11]): 6.9%
ID (Mus musculus [12]): 25%
ID (Mus musculus [13]): 12%
ID (Mus musculus [14]): 3.7%
ID (Mus musculus [15]): 0.5%
